Reference: patent publication US20230340011A1 (Asteroid Therapeutics, priority 2022, published 2023)

Legend:
SREBP-2 = SREBP-2 (Homo sapiens (Human), UniProt Q12772); assay: In vitro assay SREBP-2: PathHunter U2OS SREBP-2 Nuclear Translocation Cell Line, U18666A-stimulated; format: cell-based; details: PathHunter U2OS SREBP-2 nuclear translocation cells, U18666A 10 μM, overnight (16 hours)
LXRβ = LXRβ (Homo sapiens (Human), UniProt P55055); assay: In vitro assay LXRβ: PathHunter NHR CHO cells, LXRβ / Steroid Receptor Co-activator Peptide enzyme fragment complementation; format: cell-based; details: PathHunter NHR CHO cells, full-length human LXRβ and SRCP, chemiluminescent signal; read-out: LXRβ PPI
LXRβ, sequence (P55055 whole entry, the tested form may be a part): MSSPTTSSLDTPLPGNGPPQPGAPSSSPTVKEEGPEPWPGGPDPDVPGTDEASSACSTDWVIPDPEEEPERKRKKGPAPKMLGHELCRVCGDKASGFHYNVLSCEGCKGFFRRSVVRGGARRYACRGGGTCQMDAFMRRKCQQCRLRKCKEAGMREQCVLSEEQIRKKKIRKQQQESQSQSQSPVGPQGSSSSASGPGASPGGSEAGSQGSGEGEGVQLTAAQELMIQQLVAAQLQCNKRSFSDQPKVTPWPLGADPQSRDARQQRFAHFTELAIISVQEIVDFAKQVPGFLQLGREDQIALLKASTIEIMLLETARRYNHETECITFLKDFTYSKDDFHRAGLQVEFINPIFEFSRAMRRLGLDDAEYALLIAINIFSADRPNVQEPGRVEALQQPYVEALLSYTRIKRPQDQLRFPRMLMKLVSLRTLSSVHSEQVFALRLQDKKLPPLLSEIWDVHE
In short: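 Enzyme fragment complementation read-out: CHO cells stably expressing ProLink-tagged full-length human LXRβ plus nuclear enzyme acceptor–SRCP fusion, seeded and held overnight at 37° C. Medium with charcoal-dextran filtered serum; final vehicle 1%. Chemiluminescence measured after signal generation.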

SMILES | IC50 (SREBP-2) | EC50 (LXRβ)
C[C@H](CCC(=O)N1CCN(c2ccnc(O)n2)CC1)[C@H]1CC[C@H]2[C@@H]3CC=C4C[C@@H](O)CC[C@]4(C)[C@H]3CC[C@]12C [Example 559, (R)-4-((3S,8S,9S,10R,13R,14S,17R)-3-hydroxy-10,13-dimethyl-2,3,4,7,8,9,10,11,12,13,14,15,16,17-tetradecahydro-1H-cyclopenta[a]phenanthren-17-yl)-1-(4-(2-hydroxypyrimidin-4-yl)piperazin-1-yl)pentan-1-one] | < 0.25 µM | > 10 µM
C[C@H](CCC(=O)N1CCN(c2cc(N(C)C)ncn2)CC1)[C@H]1CC[C@H]2[C@@H]3CC=C4C[C@@H](O)CC[C@]4(C)[C@H]3CC[C@]12C [Example 663, (R)-1-(4-(6-(dimethylamino)pyrimidin-4-yl)piperazin-1-yl)-4-((3S,8S,9S,10R,13R,14S,17R)-3-hydroxy-10,13-dimethyl-2,3,4,7,8,9,10,11,12,13,14,15,16,17-tetradecahydro-1H-cyclopenta[a]phenanthren-17-yl)pentan-1-one] | < 0.25 µM | > 10 µM
C[C@H](CCC(=O)N(C)c1ccncc1)[C@H]1CC[C@H]2[C@@H]3CC=C4C[C@@H](O)CC[C@]4(C)[C@H]3CC[C@]12C [Example 639, (R)-4-((3S,8S,9S,10R,13R,14S,17R)-3-hydroxy-10,13-dimethyl-2,3,4,7,8,9,10,11,12,13,14,15,16,17-tetradecahydro-1H-cyclopenta[a]phenanthren-17-yl)-N-methyl-N-(pyridin-4-yl)pentanamide] | 0.25 to 1 µM | > 10 µM
CC[C@@]1(O)CCCN(C(=O)CC[C@@H](C)[C@H]2CC[C@H]3[C@@H]4CC=C5C[C@@H](O)CC[C@]5(C)[C@H]4CC[C@]23C)C1 [Example 106, (4R)-1-(3-ethyl-3-hydroxypiperidin-1-yl)-4-((3S,8S,9S,10R,13R,14S,17R)-3-hydroxy-10,13-dimethyl-2,3,4,7,8,9,10,11,12,13,14,15,16,17-tetradecahydro-1H-cyclopenta[a]phenanthren-17-yl)pentan-1-one] | < 0.25 µM | 0.25 to 1 µM
C[C@H](CCC(=O)N1CC[C@H](Oc2ccncc2)C[C@@H]1C)[C@H]1CC[C@H]2[C@@H]3CC=C4C[C@@H](O)CC[C@]4(C)[C@H]3CC[C@]12C [Example 585, (R)-4-((3S,8S,9S,10R,13R,14S,17R)-3-hydroxy-10,13-dimethyl-2,3,4,7,8,9,10,11,12,13,14,15,16,17-tetradecahydro-1H-cyclopenta[a]phenanthren-17-yl)-1-((2S,4S)-2-methyl-4-(pyridin-4-yloxy)piperidin-1-yl)pentan-1-one] | < 0.25 µM | 0.25 to 1 µM
C[C@H](CCC(=O)N1CCOc2cccnc21)[C@H]1CC[C@H]2[C@@H]3CC=C4C[C@@H](O)CC[C@]4(C)[C@H]3CC[C@]12C [Example 626, (4R)-4-[(1R,3aS,3bS,7S,9aR,9bS,11aR)-7-hydroxy-9a,11a-dimethyl-1H,2H,3H,3aH,3bH,4H,6H,7H,8H,9H,9aH,9bH,10H,11H,11aH-cyclopenta[a]phenanthren-1-yl]-1-{2H,3H,4H-pyrido[3,2-b][1,4]oxazin-4-yl}pentan-1-one] | < 0.25 µM | 1 to 10 µM
Cc1nccc(N2CCN(C(=O)CC[C@@H](C)[C@H]3CC[C@H]4[C@@H]5CC=C6C[C@@H](O)CC[C@]6(C)[C@H]5CC[C@]34C)CC2)n1 [Example 205, (R)-4-((3S,8S,9S,10R,13R,14S,17R)-3-hydroxy-10,13-dimethyl-2,3,4,7,8,9,10,11,12,13,14,15,16,17-tetradecahydro-1H-cyclopenta[a]phenanthren-17-yl)-1-(4-(2-methylpyrimidin-4-yl)piperazin-1-yl)pentan-1-one] | < 0.25 µM | > 10 µM
CC(C)OC(=O)N1CCN(C(=O)CC[C@@H](C)[C@H]2CC[C@H]3[C@@H]4CC=C5C[C@@H](O)CC[C@]5(C)[C@H]4CC[C@]23C)C[C@@H]1C [Example 576, isopropyl(S)-4-((R)-4-((3S,8S,9S,10R,13R,14S,17R)-3-hydroxy-10,13-dimethyl-2,3,4,7,8,9,10,11,12,13,14,15,16,17-tetradecahydro-1H-cyclopenta[a]phenanthren-17-yl)pentanoyl)-2-methylpiperazine-1-carboxylate] | < 0.25 µM | > 10 µM
C[C@H](CCC(=O)N1CCN(c2ccncn2)[C@@H](C)C1)[C@H]1CC[C@H]2[C@@H]3CC=C4C[C@@H](O)CC[C@]4(C)[C@H]3CC[C@]12C [Example 575, (4R)-4-[(1R,3aS,3bS,7S,9aR,9bS,11aR)-7-hydroxy-9a,11a-dimethyl-1H,2H,3H,3aH,3bH,4H,6H,7H,8H,9H,9aH,9bH,10H,11H,11aH-cyclopenta[a]phenanthren-1-yl]-1-[(3S)-3-methyl-4-(pyrimidin-4-yl)piperazin-1-yl]pentan-1-one] | < 0.25 µM | > 10 µM
C[C@H](CCC(=O)N1CC=C(C2CC2)CC1)[C@H]1CC[C@H]2[C@@H]3CC=C4C[C@@H](O)CC[C@]4(C)[C@H]3CC[C@]12C [Example 193A, (R)-1-(4-cyclopropyl-3,6-dihydropyridin-1(2H)-yl)-4-((3S,8S,9S,10R,13R,14S,17R)-3-hydroxy-10,13-dimethyl-2,3,4,7,8,9,10,11,12,13,14,15,16,17-tetradecahydro-1H-cyclopenta[a]phenanthren-17-yl)pentan-1-one] | < 0.25 µM | 0.25 to 1 µM
C[C@H](CCC(=O)N1CCN(c2ncncc2N)CC1)[C@H]1CC[C@H]2[C@@H]3CC=C4C[C@@H](O)CC[C@]4(C)[C@H]3CC[C@]12C [Example 632, (R)-1-(4-(5-aminopyrimidin-4-yl)piperazin-1-yl)-4-((3S,8S,9S,10R,13R,14S,17R)-3-hydroxy-10,13-dimethyl-2,3,4,7,8,9,10,11,12,13,14,15,16,17-tetradecahydro-1H-cyclopenta[a]phenanthren-17-yl)pentan-1-one] | < 0.25 µM | > 10 µM
C[C@H](CCC(=O)N1CCN(C(=O)c2ccns2)CC1)[C@H]1CC[C@H]2[C@@H]3CC=C4C[C@@H](O)CC[C@]4(C)[C@H]3CC[C@]12C [Example 311, (R)-4-((3S,8S,9S,10R,13R,14S,17R)-3-hydroxy-10,13-dimethyl-2,3,4,7,8,9,10,11,12,13,14,15,16,17-tetradecahydro-1H-cyclopenta[a]phenanthren-17-yl)-1-(4-(isothiazole-5-carbonyl)piperazin-1-yl)pentan-1-one] | < 0.25 µM | > 10 µM
Cc1cc(CC[C@@H](C)[C@H]2CC[C@H]3[C@@H]4CC=C5C[C@@H](O)CC[C@]5(C)[C@H]4CC[C@]23C)ncn1 [Example 189, (1R,3aS,3bS,7S,9aR,9bS,11aR)-9a,11a-dimethyl-1-[(2R)-4-(6-methylpyrimidin-4-yl)butan-2-yl]-1H,2H,3H,3aH,3bH,4H,6H,7H,8H,9H,9aH,9bH,10H,11H,11aH-cyclopenta[a]phenanthren-7-ol] | < 0.25 µM | 1 to 10 µM
C[C@H](CCC(=O)N1CCN(C(=O)N2CCCC2)CC1)[C@H]1CC[C@H]2[C@@H]3CC=C4C[C@@H](O)CC[C@]4(C)[C@H]3CC[C@]12C [Example 207, (R)-4-((3S,8S,9S,10R,13R,14S,17R)-3-hydroxy-10,13-dimethyl-2,3,4,7,8,9,10,11,12,13,14,15,16,17-tetradecahydro-1H-cyclopenta[a]phenanthren-17-yl)-1-(4-(pyrrolidine-1-carbonyl)piperazin-1-yl) pentan-1-one] | < 0.25 µM | > 10 µM
COC(C)C1CCN(C(=O)CC[C@@H](C)[C@H]2CC[C@H]3[C@@H]4CC=C5C[C@@H](O)CC[C@]5(C)[C@H]4CC[C@]23C)CC1 (stereo partly drawn) [Example 469, (4R)-4-((3S,8S,9S,10R,13R,14S,17R)-3-hydroxy-10,13-dimethyl-2,3,4,7,8,9,10,11,12,13,14,15,16,17-tetradecahydro-1H-cyclopenta[a]phenanthren-17-yl)-1-(4-(1-methoxyethyl)piperidin-1-yl)pentan-1-one] | < 0.25 µM | 0.25 to 1 µM
C[C@H](CCC(=O)N1CCN(c2ccnc(OCCO)n2)CC1)[C@H]1CC[C@H]2[C@@H]3CC=C4C[C@@H](O)CC[C@]4(C)[C@H]3CC[C@]12C [Example 564, (4R)-4-[(1R,3aS,3bS,7S,9aR,9bS,11aR)-7-hydroxy-9a,11a-dimethyl-1H,2H,3H,3aH,3bH,4H,6H,7H,8H,9H,9aH,9bH,10H,11H,11aH-cyclopenta[a]phenanthren-1-yl]-1-{4-[2-(2-hydroxyethoxy)pyrimidin-4-yl]piperazin-1-yl}pentan-1-one] | < 0.25 µM | > 10 µM
COc1cccc(N2CCN(C(=O)CC[C@@H](C)[C@H]3CC[C@H]4[C@@H]5CC=C6C[C@@H](O)CC[C@]6(C)[C@H]5CC[C@]34C)CC2)n1 [Example 659, (R)-4-((3S,8S,9S,10R,13R,14S,17R)-3-hydroxy-10,13-dimethyl-2,3,4,7,8,9,10,11,12,13,14,15,16,17-tetradecahydro-1H-cyclopenta[a]phenanthren-17-yl)-1-(4-(6-methoxypyridin-2-yl)piperazin-1-yl)pentan-1-one] | < 0.25 µM | > 10 µM
Cc1nnc(N2CCN(C(=O)CC[C@@H](C)[C@H]3CC[C@H]4[C@@H]5CC=C6C[C@@H](O)CC[C@]6(C)[C@H]5CC[C@]34C)[C@@H](C)C2)o1 [Example 635, (R)-4-((3S,8S,9S,10R,13R,14S,17R)-3-hydroxy-10,13-dimethyl-2,3,4,7,8,9,10,11,12,13,14,15,16,17-tetradecahydro-1H-cyclopenta[a]phenanthren-17-yl)-1-((S)-2-methyl-4-(5-methyl-1,3,4-oxadiazol-2-yl)piperazin-1-yl)pentan-1-one] | < 0.25 µM | > 10 µM
